Tests used:
Assay type in all cases: cell-based, Human
HT 1080 cells [1] = assay: Cancer cell survival rate test (MTT); settings: different concentrations, 24 hours
Experimental: 3. Cancer Cell Survival Rate Test (Lambert et al., 1997; Yang et al., 2006)
A medium in a culturing plate containing cells grown covering the whole bottom of the culturing plate, was removed. The cells were washed with 10 ml of PBS, and then suspended and mixed well with 10 ml of medium (a part of the cells need to be suspended with Trypsin-EDTA buffer). The numbers of the cells were calculated by a hemocytometer, and the cells were diluted to an appropriate cell concentration and added into the wells of a 24 well culturing plate by an amount of 500 μl/well. The 24 well culturing plates were placed in an incubator at 37° C. in a humidified atmosphere containing 5% CO2. After the cells were attached onto the bottom of the wells, the medium in each well was removed, and fresh mediums with different concentrations of a test drug were added into wells, respectively (if the cells were suspension cells, the fresh medium may be added into the wells, directly). Then, the 24 well culturing plates were placed in an incubator at 37° C. in a humidified atmosphere containing 5% CO2 for 24 hours. After that, an upper medium in each well was removed. The cells were washed with a PBS buffer twice, and then an MTT solution which was prepared with a medium was added to each well. […] After that, an ELISA reader was used to determine the absorbance for each well at 600 nm.

[2] = test system: matrix metalloproteinase-9; assay: Western blot analysis, MMP-9 protein expression in HT 1080 cells
Experimental: HT 1080 cells with appropriate cell numbers were cultured in 60 mm culturing plates for 12 hours, respectively. After the cells were attached onto the bottom of the plate and formed a monolayer, the medium in the plate was removed. Fresh serum-free mediums with different concentrations of a test drug were added to the plates, respectively, and 100 nM PMA was added to each plate to induce the cells to express great quantities of matrix metalloproteinase-2 and matrix metalloproteinase-9, and the plates were placed in a temperature of 37° C. for 24 hours. A quantitatively cultured supernatant in each plate was centrifuged or protein was extracted from cells in each plate to be quantitated, and then an SDS-sample buffer containing 2-ME was added therein to form a mixture. The mixture was injected into a 10% SDS-polyacrylamide gel […] and then electrophoresed. After electrophoresis was completed, the proteins in the gel were transferred to a PVDF membrane. The PVDF membrane was equilibrated with gelatin-NET at room temperature for 30 minutes. […]

HT 1080 cells [3] = assay: Cell adhesion assay (gelatin-coated plate)
Experimental: 11. Cell Adhesion Assay (Lee et al., 2005; Ouyang et al., 2005; Zhang et al., 2005)
HT 1080 cells were used to prepare a cell suspension with an appropriate concentration by a fresh serum free medium, and the cell suspension was mixed with test drugs with different concentrations, respectively and then added to wells of a 24 well culturing plate pre-coated with gelatin, respectively. The 24 well culturing plates were placed in an incubator at 37° C. for 30 minutes. After that, the upper medium in each well was removed and the cells were washed with a PBS buffer twice, and then an MTT solution which was prepared with a medium was added to each well. After the 24 well culturing plates were placed in an incubator at 37° C. for reacting for 4-6 hours, an upper medium in each well was removed, and 100 μl of DMSO was added to each well to solubilize the formazan precipitates. After that, an ELISA reader was used to determine the absorbance at 600 nm for each well. The calculation for the adhesion rate of the cells was: […]

[4] = test system: matrix metalloproteinase-2; assay: Gelatin gel zymography of PMA-induced HT 1080 cells, MMP-2 activity
Experimental: 4. Gelatin Gel Zymography (Shim et al., 2003; Park et al., 2005; Hwang et al., 2006)
HT 1080 cells with appropriate cell numbers were cultured in 60 mm culturing plates for 12 hours, respectively. After the cells were attached onto the bottom of the plate and formed a monolayer, the medium in the plate was removed. Fresh serum free mediums with different concentrations of a test sample were added to the plates, respectively, and 100 nM PMA was added to each plate to induce the cells to express great quantities of matrix metalloproteinase-2 and matrix metalloproteinase-9, and the plates were placed in a temperature of 37° C. for 24 hours. After centrifugation, each cultured supernatant were saved and mixed with SDS-sample buffer under the same protein contents which were then injected into a 10% SDS-polyacrylamide gel (containing 1 mg/ml gelatin) and then electrophoresed. After the electrophoresis was completed, the gel was taken out and washed with 20 mM Tris-HCl containing 25% isopropanol three times; 10 minutes per time. Then the gel was equilibrated with 20 mM Tris-HCl for 30 minutes, and finally an incubate buffer (5 mM CaCl2 and 1 mM ZnCl2) was added to the gel and reacted with the gel overnight. Then the gel was stained with coomassie blue, and positions having matrix metalloproteinase activity of the gel presented a white color.

SMILES: NC(CCC(=O)NO)C(=O)O [DH, L-Glutamic acid γ-hydroxamate]
- cytotoxicity to HT 1080 cells (HT 1080 cells [1]): no significant cytotoxicity
- protein expression amount of matrix metalloproteinase-9 secreted out of and left in HT 1080 cells ([2]; 0.4, 0.8, 1.2, and 1.6, 24 hours, Western blotting): all decreased
- inhibition rate to the protein expression amount of matrix metalloproteinase-9 of a cancer cell ([2]; about 0.1-2 mM, stated as embodiment, 'and/or' MMP-2): 40-90%
- number of HT 1080 cells attached (adhesion) (HT 1080 cells [3]; 0.4, 1.2, 2 and 2.8 mM, gelatin coated plate, 30 minutes): slight dose dependent decreasing trend
- inhibition rate to cancer cell adhesion (HT 1080 cells [3]; about 0.1-3 mM, stated as embodiment): 10-30%
- protein activity of matrix metalloproteinase-2 secreted out of and left in HT 1080 cells ([4]; 0.4, 0.8, 1.2, and 1.6, 24 hours): also decreased
- inhibition rate to the activity of matrix metalloproteinase-2 ([4]; HT 1080 cells treated 24 hours): greater than 50%
- matrix metalloproteinase-2 inhibiting activity ([4]; HT 1080 cells, 0.4, 0.8, 1.2 and 1.6 mM, 24 hours): increased while the concentration thereof was increased
- inhibition rate to the protein activity of metalloproteinase-2 of a cancer cell ([4]; about 0.1-2 mM, stated as embodiment, 'and/or' MMP-9): 40-70%
